From the kinase profiling compilation of Christmann-Franck et al. (2016)
Where “and” joins values, the source holds several entries; their conditions need not be identical. Equal entries are not always repeated.

Key:
Assay in all cases: radiometric filter-binding kinase assay, Kinase HotSpot
Settings in all cases: compound 0.5 µM; ATP 10 µM
AURKA (human) = AURKA (human) (UniProt O14965)
CAMK1D (human) = CAMK1D (human) (UniProt Q8IU85)
CAMK2B (human) = CAMK2B (human) (UniProt Q13554)
CDK2 CCNE1 (human) = CDK2 CCNE1 (human) (UniProt P24941+P24864)
CDK6 CCND1 (human) = CDK6 CCND1 (human) (UniProt Q00534+P24385)
CDK7 CCNH MNAT1 (human) = CDK7 CCNH MNAT1 (human) (UniProt P50613+P51948+P51946)
CDK9 CCNK (human) = CDK9 CCNK (human) (UniProt O75909+P50750)
CLK2 (human) = CLK2 (human) (UniProt P49760)
DAPK1 (human) = DAPK1 (human) (UniProt P53355)
EPHA1 (human) = EPHA1 (human) (UniProt P21709)
EPHB2 (human) = EPHB2 (human) (UniProt P29323)
EPHB4 (human) = EPHB4 (human) (UniProt P54760)
FES (human) = FES (human) (UniProt P07332)
GSK3A (human) = GSK3A (human) (UniProt P49840)
INSRR (human) = INSRR (human) (UniProt P14616)
MAP4K4 (human) = MAP4K4 (human) (UniProt O95819)
MAPK10 (human) = MAPK10 (human) (UniProt P53779)
MAPKAPK5 (human) = MAPKAPK5 (human) (UniProt Q8IW41)
MET (human) = MET (human) (UniProt P08581)
MINK1 (human) = MINK1 (human) (UniProt Q8N4C8)
MKNK2 (human) = MKNK2 (human) (UniProt Q9HBH9)
MLTK (human) = MLTK (human) (UniProt Q9NYL2)
MST4 (human) = MST4 (human) (UniProt Q9P289)
MYLK (human) = MYLK (human) (UniProt Q15746)
MYLK2 (human) = MYLK2 (human) (UniProt Q9H1R3)
NEK11 (human) = NEK11 (human) (UniProt Q8NG66)
NEK9 (human) = NEK9 (human) (UniProt Q8TD19)
PAK6 (human) = PAK6 (human) (UniProt Q9NQU5)
PIM1 (human) = PIM1 (human) (UniProt P11309)
PLK2 (human) = PLK2 (human) (UniProt Q9NYY3)
PRKACA (human) = PRKACA (human) (UniProt P17612)
PRKCD (human) = PRKCD (human) (UniProt Q05655)
PRKD1 (human) = PRKD1 (human) (UniProt Q15139)
PRKG1 (human) = PRKG1 (human) (UniProt Q13976)
ROCK1 (human) = ROCK1 (human) (UniProt Q13464)
RPS6KB2 (human) = RPS6KB2 (human) (UniProt Q9UBS0)
SGK2 (human) = SGK2 (human) (UniProt Q9HBY8)
STK33 (human) = STK33 (human) (UniProt Q9BYT3)
STK39 (human) = STK39 (human) (UniProt Q9UEW8)
SYK (human) = SYK (human) (UniProt P43405)
ULK2 (human) = ULK2 (human) (UniProt Q8IYT8)
WNK2 (human) = WNK2 (human) (UniProt Q9Y3S1)

Sequence of MLTK (human) (Q9NYL2 whole entry, looked up): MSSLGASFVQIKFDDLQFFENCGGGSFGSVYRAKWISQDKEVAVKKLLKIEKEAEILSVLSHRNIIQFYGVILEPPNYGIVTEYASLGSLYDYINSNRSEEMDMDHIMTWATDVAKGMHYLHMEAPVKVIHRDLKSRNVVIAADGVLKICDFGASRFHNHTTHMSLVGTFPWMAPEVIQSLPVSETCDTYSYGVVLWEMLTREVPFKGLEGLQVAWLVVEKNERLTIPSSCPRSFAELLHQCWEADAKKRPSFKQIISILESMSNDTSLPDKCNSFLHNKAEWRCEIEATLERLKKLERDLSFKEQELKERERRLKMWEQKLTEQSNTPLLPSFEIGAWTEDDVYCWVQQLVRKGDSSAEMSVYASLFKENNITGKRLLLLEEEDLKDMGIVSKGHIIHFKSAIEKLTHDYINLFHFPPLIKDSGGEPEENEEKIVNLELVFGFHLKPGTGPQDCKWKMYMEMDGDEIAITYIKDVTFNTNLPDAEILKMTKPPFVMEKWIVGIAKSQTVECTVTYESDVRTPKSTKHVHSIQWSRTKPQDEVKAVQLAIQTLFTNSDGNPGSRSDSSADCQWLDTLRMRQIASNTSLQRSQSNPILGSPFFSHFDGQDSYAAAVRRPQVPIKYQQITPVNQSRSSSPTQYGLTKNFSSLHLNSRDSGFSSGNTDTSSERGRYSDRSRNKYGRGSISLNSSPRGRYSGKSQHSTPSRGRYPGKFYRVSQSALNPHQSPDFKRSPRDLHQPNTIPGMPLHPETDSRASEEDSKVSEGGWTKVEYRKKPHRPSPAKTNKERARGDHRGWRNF
Sequence of AURKA (human) (O14965 whole entry, looked up): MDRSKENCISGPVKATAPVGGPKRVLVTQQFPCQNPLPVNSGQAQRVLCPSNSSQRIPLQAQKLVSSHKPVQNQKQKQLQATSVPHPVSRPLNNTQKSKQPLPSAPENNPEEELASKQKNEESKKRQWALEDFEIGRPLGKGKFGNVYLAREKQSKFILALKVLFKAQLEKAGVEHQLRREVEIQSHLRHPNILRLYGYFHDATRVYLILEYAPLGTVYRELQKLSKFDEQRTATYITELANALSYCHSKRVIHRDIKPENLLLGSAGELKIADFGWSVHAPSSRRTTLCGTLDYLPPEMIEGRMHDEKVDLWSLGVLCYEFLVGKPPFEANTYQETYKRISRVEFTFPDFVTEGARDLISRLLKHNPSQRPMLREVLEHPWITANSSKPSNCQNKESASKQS
Sequence of PRKCD (human) (Q05655 whole entry, looked up): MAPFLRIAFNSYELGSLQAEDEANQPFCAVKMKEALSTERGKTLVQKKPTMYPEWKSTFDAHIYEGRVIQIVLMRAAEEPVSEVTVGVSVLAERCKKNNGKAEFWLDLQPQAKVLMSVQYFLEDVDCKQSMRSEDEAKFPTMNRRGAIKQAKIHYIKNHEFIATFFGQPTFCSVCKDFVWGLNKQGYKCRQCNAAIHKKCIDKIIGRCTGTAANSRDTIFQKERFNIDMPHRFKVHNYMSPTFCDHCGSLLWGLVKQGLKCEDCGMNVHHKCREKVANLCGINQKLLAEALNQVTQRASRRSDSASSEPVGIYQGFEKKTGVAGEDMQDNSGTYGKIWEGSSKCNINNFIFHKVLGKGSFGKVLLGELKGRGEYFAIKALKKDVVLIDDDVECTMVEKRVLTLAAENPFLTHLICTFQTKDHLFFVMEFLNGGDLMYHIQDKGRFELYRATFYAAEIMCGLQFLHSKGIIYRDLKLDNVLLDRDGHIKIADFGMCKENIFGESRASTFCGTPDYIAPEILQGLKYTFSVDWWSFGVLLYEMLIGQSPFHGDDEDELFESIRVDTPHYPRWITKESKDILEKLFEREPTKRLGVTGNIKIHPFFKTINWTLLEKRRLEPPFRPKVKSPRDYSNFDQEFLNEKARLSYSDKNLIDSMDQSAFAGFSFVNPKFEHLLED
Sequence of STK33 (human) (Q9BYT3 whole entry, looked up): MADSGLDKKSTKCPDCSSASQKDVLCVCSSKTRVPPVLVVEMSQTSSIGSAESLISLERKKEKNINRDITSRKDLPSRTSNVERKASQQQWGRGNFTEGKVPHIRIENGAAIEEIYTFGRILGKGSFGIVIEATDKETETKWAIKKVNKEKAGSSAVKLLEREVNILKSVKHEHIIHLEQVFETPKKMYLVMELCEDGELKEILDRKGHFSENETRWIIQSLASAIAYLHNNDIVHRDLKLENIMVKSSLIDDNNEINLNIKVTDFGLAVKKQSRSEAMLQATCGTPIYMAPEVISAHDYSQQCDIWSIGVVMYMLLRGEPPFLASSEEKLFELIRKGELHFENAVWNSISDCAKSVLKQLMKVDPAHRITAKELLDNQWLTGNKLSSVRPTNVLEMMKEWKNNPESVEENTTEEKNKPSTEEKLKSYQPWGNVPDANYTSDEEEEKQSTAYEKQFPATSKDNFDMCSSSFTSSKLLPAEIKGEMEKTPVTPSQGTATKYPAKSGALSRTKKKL
Sequence of PRKG1 (human) (Q13976 whole entry, looked up): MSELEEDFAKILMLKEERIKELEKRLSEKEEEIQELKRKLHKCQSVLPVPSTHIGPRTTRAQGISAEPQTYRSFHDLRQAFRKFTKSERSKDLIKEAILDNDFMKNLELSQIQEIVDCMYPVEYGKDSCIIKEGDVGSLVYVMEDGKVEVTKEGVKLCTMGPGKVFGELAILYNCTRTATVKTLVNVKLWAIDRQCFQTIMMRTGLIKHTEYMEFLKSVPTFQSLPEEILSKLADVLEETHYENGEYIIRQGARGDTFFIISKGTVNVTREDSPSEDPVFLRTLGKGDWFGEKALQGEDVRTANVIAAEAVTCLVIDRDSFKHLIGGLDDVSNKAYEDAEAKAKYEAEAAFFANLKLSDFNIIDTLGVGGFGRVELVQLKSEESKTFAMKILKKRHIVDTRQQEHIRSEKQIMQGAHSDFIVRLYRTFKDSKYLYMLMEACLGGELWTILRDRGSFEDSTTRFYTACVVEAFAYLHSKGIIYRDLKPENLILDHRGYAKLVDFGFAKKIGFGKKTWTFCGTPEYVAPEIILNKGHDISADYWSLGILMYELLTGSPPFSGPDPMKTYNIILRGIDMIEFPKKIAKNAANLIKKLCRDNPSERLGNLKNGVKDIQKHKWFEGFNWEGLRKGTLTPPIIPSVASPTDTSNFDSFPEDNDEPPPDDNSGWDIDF
Sequence of NEK9 (human) (Q8TD19 whole entry, looked up): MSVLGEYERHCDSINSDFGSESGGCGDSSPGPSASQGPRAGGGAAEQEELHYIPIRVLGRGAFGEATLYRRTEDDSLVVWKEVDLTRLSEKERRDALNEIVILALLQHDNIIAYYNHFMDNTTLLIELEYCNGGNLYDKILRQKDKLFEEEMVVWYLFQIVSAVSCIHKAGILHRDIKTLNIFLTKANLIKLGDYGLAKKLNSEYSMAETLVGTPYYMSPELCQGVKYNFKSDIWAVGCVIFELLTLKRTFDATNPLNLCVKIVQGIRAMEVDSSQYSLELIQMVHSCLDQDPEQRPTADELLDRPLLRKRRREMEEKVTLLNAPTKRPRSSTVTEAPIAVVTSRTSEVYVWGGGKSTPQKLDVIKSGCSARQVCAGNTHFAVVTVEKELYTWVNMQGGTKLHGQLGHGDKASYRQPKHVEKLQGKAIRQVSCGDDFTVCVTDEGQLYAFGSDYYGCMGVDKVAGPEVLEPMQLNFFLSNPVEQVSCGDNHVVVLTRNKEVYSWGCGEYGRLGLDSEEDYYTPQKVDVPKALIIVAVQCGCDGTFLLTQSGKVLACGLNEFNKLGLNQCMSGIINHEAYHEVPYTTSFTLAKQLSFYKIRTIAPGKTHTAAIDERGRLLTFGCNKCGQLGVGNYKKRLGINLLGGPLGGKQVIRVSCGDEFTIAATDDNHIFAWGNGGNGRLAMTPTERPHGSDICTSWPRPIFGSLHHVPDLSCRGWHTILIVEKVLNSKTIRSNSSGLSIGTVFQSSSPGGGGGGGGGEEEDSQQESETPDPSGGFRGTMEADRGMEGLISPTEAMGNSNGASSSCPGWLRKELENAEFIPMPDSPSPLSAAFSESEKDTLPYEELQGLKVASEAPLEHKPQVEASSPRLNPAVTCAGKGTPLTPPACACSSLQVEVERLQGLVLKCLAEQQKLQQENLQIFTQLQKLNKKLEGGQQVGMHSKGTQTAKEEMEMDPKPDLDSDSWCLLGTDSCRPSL
Sequence of PRKD1 (human) (Q15139 whole entry, looked up): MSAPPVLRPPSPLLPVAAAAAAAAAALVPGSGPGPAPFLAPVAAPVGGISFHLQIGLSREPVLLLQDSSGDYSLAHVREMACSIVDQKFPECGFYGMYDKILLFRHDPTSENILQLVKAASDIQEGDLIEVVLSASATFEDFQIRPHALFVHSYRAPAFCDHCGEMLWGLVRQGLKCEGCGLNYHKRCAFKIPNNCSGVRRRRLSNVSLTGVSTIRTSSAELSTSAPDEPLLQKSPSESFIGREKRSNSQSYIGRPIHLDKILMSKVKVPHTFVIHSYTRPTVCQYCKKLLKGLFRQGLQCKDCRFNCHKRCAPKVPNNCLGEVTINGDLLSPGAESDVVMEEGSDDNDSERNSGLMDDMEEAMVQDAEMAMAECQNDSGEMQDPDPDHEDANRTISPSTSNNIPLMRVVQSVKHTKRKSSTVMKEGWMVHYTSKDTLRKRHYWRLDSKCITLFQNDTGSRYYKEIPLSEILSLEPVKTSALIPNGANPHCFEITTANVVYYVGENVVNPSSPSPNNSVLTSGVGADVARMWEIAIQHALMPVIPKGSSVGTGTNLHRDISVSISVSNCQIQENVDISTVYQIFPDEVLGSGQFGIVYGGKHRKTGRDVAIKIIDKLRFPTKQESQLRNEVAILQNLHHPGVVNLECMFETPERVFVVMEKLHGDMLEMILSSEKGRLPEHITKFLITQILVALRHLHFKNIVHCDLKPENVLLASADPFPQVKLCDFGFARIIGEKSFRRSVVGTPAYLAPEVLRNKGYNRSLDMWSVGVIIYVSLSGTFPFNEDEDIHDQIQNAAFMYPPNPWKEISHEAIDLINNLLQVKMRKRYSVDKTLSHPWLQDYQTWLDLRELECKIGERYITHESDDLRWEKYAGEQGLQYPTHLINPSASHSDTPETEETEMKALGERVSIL

O=C(Nc1ccc(Cl)cc1)c1ccccc1NCc1ccncc1
residual activity (AURKA (human)): 84.4% | residual activity (CAMK1D (human)): 95.3% | residual activity (CAMK2B (human)): 93.4% | residual activity (CDK2 CCNE1 (human)): 94.3% | residual activity (CDK6 CCND1 (human)): 93.4% | residual activity (CDK7 CCNH MNAT1 (human)): 95.1% | residual activity (CDK9 CCNK (human)): 95.5% | residual activity (CLK2 (human)): 91.8% | residual activity (DAPK1 (human)): 99.9% | residual activity (EPHA1 (human)): 97% | residual activity (EPHB2 (human)): 84.7% | residual activity (EPHB4 (human)): 89.6% | residual activity (FES (human)): 96.6% | residual activity (GSK3A (human)): 80.1% | residual activity (INSRR (human)): 96.1% | residual activity (MAP4K4 (human)): 88.7% | residual activity (MAPK10 (human)): 89.9% | residual activity (MAPKAPK5 (human)): 88.7% | residual activity (MET (human)): 92.2% | residual activity (MINK1 (human)): 96.9% | residual activity (MKNK2 (human)): 82.3% | residual activity (MLTK (human)): 86% | residual activity (MST4 (human)): 90.9% | residual activity (MYLK (human)): 105% | residual activity (MYLK2 (human)): 99.5% | residual activity (NEK11 (human)): 104% | residual activity (NEK9 (human)): 91.2% | residual activity (PAK6 (human)): 101% | residual activity (PIM1 (human)): 98.9% | residual activity (PLK2 (human)): 99.3% | residual activity (PRKACA (human)): 97.1% | residual activity (PRKCD (human)): 84.7% | residual activity (PRKD1 (human)): 93.2% | residual activity (PRKG1 (human)): 86.8% and 92.3% | residual activity (ROCK1 (human)): 98.4% | residual activity (RPS6KB2 (human)): 105% | residual activity (SGK2 (human)): 103% | residual activity (STK33 (human)): 86.4% | residual activity (STK39 (human)): 94.7% | residual activity (SYK (human)): 93.6% | residual activity (ULK2 (human)): 104% | residual activity (WNK2 (human)): 101%

O=C1Cc2c([nH]c3ccc([N+](=O)[O-])cc23)-c2ccccc2N1
residual activity (AURKA (human)): 96% | residual activity (CAMK2B (human)): 98.1% | residual activity (CDK2 CCNE1 (human)): 19.6% | residual activity (CDK6 CCND1 (human)): 16.8% | residual activity (CDK7 CCNH MNAT1 (human)): 99.9% | residual activity (CDK9 CCNK (human)): 24.2% | residual activity (CLK2 (human)): 97.7% | residual activity (DAPK1 (human)): 104% | residual activity (EPHA1 (human)): 94.8% | residual activity (EPHB2 (human)): 101% | residual activity (EPHB4 (human)): 87.2% | residual activity (FES (human)): 46.3% | residual activity (GSK3A (human)): 0.971% | residual activity (INSRR (human)): 94.5% | residual activity (MAP4K4 (human)): 4.47% | residual activity (MAPK10 (human)): 97.2% | residual activity (MAPKAPK5 (human)): 92.7% | residual activity (MET (human)): 117% | residual activity (MINK1 (human)): 20.4% | residual activity (MKNK2 (human)): 92.9% | residual activity (MST4 (human)): 78.6% | residual activity (MYLK (human)): 88.8% | residual activity (MYLK2 (human)): 94.8% | residual activity (NEK11 (human)): 95.4% | residual activity (NEK9 (human)): 99.3% | residual activity (PAK6 (human)): 101% | residual activity (PIM1 (human)): 92% | residual activity (PLK2 (human)): 106% | residual activity (PRKACA (human)): 87.4% | residual activity (PRKCD (human)): 79.8% | residual activity (PRKD1 (human)): 95.6% | residual activity (PRKG1 (human)): 94.3% and 96.8% | residual activity (ROCK1 (human)): 91.2% | residual activity (RPS6KB2 (human)): 96.5% | residual activity (SGK2 (human)): 111% | residual activity (STK33 (human)): 79.9% | residual activity (STK39 (human)): 77.5% | residual activity (SYK (human)): 53.9% | residual activity (ULK2 (human)): 72.7% | residual activity (WNK2 (human)): 116%

Nc1nc(Nc2ccc(S(N)(=O)=O)cc2)nn1C(=O)c1c(F)cccc1F
residual activity (CAMK1D (human)): 97.7% | residual activity (CAMK2B (human)): 99.7% | residual activity (CDK2 CCNE1 (human)): 7.15% | residual activity (CDK6 CCND1 (human)): 17.1% | residual activity (CDK7 CCNH MNAT1 (human)): 81.1% | residual activity (CDK9 CCNK (human)): 27.4% | residual activity (CLK2 (human)): 71.5% | residual activity (DAPK1 (human)): 93.8% | residual activity (EPHA1 (human)): 73.7% | residual activity (EPHB2 (human)): 96.1% | residual activity (EPHB4 (human)): 81% | residual activity (GSK3A (human)): 9.59% | residual activity (INSRR (human)): 93.8% | residual activity (MAP4K4 (human)): 83.8% | residual activity (MAPK10 (human)): 100% | residual activity (MAPKAPK5 (human)): 80.3% | residual activity (MET (human)): 75.3% | residual activity (MINK1 (human)): 98.1% | residual activity (MKNK2 (human)): 95.9% | residual activity (MLTK (human)): 100% | residual activity (MST4 (human)): 64.2% | residual activity (MYLK (human)): 80% | residual activity (MYLK2 (human)): 96.1% | residual activity (NEK11 (human)): 95.8% | residual activity (NEK9 (human)): 82.2% | residual activity (PAK6 (human)): 101% | residual activity (PIM1 (human)): 97.6% | residual activity (PLK2 (human)): 94.2% | residual activity (PRKACA (human)): 98.8% | residual activity (PRKCD (human)): 81.2% | residual activity (PRKD1 (human)): 66.5% | residual activity (PRKG1 (human)): 104% and 86.1% | residual activity (ROCK1 (human)): 42.6% | residual activity (RPS6KB2 (human)): 104% | residual activity (SGK2 (human)): 106% | residual activity (STK33 (human)): 74.4% | residual activity (STK39 (human)): 89.5% | residual activity (SYK (human)): 61.6% | residual activity (ULK2 (human)): 102% | residual activity (WNK2 (human)): 116%

O=C1Nc2ccccc2/C1=C\c1c(Cl)[nH]c2ccccc12
residual activity (AURKA (human)): 108% | residual activity (CAMK1D (human)): 102% | residual activity (CAMK2B (human)): 108% | residual activity (CDK2 CCNE1 (human)): 79.9% | residual activity (CDK6 CCND1 (human)): 105% | residual activity (CDK7 CCNH MNAT1 (human)): 99.7% | residual activity (CDK9 CCNK (human)): 98.3% | residual activity (CLK2 (human)): 92.7% | residual activity (DAPK1 (human)): 88.1% | residual activity (EPHA1 (human)): 98.5% | residual activity (EPHB2 (human)): 94.2% | residual activity (EPHB4 (human)): 90.2% | residual activity (FES (human)): 96.6% | residual activity (GSK3A (human)): 99.3% | residual activity (INSRR (human)): 93.7% | residual activity (MAP4K4 (human)): 75.7% | residual activity (MAPK10 (human)): 103% | residual activity (MAPKAPK5 (human)): 121% | residual activity (MET (human)): 109% | residual activity (MINK1 (human)): 94.9% | residual activity (MKNK2 (human)): 93.5% | residual activity (MLTK (human)): 99.2% | residual activity (MYLK (human)): 90.4% | residual activity (MYLK2 (human)): 94.6% | residual activity (NEK11 (human)): 98.5% | residual activity (NEK9 (human)): 94.2% | residual activity (PAK6 (human)): 101% | residual activity (PIM1 (human)): 88.5% | residual activity (PLK2 (human)): 98.2% | residual activity (PRKACA (human)): 102% | residual activity (PRKCD (human)): 88.4% | residual activity (PRKD1 (human)): 89.5% | residual activity (PRKG1 (human)): 92.5% and 93.6% | residual activity (ROCK1 (human)): 101% | residual activity (RPS6KB2 (human)): 99.4% | residual activity (SGK2 (human)): 103% | residual activity (STK33 (human)): 105% | residual activity (STK39 (human)): 104% | residual activity (SYK (human)): 102% | residual activity (ULK2 (human)): 99.7% | residual activity (WNK2 (human)): 93.4%
